Test results as given in US9492471B2, “Methods of treating a disease or disorder associated with Bruton'S Tyrosine Kinase” (Celgene Avilomics Research, Inc., priority 2013, dated 2016).
Read-outs that look alike come from different tables or passages of the source.

Key:
Experiment in all cases: HotSpot kinase profiling
Format in all cases: biochemical
TGFBR2 = target: T1, TGFBR2 (Homo sapiens, UniProt P37173)
T1 construct: purchased Reaction Biology Corp
Procedure, shortened: (§1)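 Radio-isotope P81 filtration format. Substrate + required cofactors in reaction buffer, kinase added, 2 h RT. Stop, wash with 0.1% phosphoric acid, detect. % inhibition vs DMSO; mean of duplicates where repeated.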

NEK9 = target: T2, NEK9 (Homo sapiens, UniProt Q8TD19)
T2 construct: purchased Reaction Biology Corp
T2 sequence (Q8TD19 1-979): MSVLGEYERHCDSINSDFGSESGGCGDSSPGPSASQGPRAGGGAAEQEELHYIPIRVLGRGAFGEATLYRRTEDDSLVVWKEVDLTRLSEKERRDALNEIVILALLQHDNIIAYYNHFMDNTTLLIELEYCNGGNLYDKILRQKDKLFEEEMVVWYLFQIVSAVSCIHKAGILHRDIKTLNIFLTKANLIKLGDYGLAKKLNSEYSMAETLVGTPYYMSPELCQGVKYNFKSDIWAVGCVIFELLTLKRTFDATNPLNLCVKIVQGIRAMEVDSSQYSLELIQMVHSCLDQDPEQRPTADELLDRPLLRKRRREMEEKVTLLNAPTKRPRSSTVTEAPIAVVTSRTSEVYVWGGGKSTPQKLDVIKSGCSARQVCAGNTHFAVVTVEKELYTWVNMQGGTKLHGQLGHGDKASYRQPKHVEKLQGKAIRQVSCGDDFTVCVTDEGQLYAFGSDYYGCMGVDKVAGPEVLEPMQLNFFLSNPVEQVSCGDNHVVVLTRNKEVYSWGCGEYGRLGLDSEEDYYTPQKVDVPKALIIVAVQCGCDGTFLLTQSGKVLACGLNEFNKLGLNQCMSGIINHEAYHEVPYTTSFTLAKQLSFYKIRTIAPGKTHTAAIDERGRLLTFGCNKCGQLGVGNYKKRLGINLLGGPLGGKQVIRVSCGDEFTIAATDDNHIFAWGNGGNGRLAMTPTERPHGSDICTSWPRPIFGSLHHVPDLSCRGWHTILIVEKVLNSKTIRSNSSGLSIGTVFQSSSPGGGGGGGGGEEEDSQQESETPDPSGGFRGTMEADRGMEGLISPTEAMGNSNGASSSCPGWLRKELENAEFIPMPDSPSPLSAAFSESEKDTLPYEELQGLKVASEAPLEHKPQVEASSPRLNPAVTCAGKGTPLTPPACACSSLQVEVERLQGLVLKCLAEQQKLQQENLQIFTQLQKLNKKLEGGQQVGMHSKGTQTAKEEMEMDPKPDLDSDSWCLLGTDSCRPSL
Procedure, shortened: as §1

ULK2 = target: T3, ULK2 (Homo sapiens, UniProt Q8IYT8)
T3 construct: purchased Reaction Biology Corp
T3 sequence (Q8IYT8 1-1036): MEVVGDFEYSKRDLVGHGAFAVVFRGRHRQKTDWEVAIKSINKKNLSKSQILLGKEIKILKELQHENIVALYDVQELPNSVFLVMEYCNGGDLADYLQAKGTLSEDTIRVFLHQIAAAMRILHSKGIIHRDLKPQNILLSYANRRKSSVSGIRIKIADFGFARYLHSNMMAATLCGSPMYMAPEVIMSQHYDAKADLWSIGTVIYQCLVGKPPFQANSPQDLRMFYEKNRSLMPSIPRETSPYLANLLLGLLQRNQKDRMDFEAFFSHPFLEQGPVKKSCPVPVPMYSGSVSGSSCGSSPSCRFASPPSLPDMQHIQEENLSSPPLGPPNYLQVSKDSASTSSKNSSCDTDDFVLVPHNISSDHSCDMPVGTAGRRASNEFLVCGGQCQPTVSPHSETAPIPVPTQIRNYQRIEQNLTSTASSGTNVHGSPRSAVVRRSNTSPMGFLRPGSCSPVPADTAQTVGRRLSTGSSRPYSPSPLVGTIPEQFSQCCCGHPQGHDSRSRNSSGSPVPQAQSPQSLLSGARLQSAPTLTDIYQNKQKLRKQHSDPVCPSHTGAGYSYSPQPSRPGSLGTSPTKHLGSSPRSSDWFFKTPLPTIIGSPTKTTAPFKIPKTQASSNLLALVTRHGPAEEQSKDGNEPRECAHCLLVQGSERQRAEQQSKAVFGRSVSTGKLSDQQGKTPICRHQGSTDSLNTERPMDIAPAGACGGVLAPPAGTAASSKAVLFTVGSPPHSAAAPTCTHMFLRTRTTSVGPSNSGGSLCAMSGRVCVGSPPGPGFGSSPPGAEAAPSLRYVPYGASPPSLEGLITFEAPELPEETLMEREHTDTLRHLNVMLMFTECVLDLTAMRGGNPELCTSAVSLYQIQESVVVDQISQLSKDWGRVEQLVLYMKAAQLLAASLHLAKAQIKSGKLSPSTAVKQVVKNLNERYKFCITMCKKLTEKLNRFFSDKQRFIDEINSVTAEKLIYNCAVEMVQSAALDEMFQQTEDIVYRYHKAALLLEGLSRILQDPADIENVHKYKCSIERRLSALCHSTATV
Procedure, shortened: as §1

MLCK2/MYLK2 = target: T4, MLCK2/MYLK2 (Homo sapiens, UniProt Q9H1R3)
T4 construct: purchased Reaction Biology Corp
Procedure, shortened: as §1

JNK1 = target: T5, JNK1 (Homo sapiens, UniProt P45983)
T5 construct: purchased Reaction Biology Corp
T5 sequence (P45983 whole entry): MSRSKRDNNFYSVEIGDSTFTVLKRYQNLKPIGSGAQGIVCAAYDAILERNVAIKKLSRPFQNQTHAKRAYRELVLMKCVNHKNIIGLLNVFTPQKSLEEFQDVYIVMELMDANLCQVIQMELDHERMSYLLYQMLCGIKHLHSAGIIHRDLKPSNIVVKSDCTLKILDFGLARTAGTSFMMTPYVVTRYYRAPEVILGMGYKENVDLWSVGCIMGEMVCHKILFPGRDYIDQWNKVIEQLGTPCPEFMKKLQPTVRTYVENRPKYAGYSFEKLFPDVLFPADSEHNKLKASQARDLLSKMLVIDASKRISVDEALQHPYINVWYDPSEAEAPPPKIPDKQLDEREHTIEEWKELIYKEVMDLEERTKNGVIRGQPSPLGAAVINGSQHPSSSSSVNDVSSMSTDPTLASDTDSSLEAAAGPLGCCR
Procedure, shortened: as §1

ZAK/MLTK = target: T6, ZAK/MLTK (Homo sapiens, UniProt Q9NYL2)
T6 construct: purchased Reaction Biology Corp
T6 sequence (Q9NYL2 whole entry): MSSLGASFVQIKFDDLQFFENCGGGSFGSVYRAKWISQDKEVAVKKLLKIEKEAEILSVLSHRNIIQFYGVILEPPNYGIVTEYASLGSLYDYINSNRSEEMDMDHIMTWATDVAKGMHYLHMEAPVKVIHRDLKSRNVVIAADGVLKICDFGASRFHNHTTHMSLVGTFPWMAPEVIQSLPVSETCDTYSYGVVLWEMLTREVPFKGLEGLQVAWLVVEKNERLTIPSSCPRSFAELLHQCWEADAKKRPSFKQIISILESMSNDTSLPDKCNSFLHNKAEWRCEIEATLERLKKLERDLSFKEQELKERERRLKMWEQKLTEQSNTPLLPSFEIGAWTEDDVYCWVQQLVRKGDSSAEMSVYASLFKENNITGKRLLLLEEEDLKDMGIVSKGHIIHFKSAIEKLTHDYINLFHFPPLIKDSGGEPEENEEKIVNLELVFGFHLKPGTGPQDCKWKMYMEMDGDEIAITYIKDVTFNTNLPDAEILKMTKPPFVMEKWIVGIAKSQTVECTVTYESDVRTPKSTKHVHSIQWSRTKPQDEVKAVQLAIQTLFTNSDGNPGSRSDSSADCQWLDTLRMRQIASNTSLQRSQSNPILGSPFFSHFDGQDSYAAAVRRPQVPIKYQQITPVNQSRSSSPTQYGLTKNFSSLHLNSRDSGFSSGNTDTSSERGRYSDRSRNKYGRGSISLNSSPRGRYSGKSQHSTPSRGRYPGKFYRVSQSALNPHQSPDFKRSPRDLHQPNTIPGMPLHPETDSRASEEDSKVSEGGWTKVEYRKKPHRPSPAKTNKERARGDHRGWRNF
Procedure, shortened: as §1

[1] = read-out: % Enzyme Activity (relative to DMSO controls) Run 1
[2] = read-out: % Enzyme Activity (relative to DMSO controls) Run 2

T1 sequence (P37173 23-567): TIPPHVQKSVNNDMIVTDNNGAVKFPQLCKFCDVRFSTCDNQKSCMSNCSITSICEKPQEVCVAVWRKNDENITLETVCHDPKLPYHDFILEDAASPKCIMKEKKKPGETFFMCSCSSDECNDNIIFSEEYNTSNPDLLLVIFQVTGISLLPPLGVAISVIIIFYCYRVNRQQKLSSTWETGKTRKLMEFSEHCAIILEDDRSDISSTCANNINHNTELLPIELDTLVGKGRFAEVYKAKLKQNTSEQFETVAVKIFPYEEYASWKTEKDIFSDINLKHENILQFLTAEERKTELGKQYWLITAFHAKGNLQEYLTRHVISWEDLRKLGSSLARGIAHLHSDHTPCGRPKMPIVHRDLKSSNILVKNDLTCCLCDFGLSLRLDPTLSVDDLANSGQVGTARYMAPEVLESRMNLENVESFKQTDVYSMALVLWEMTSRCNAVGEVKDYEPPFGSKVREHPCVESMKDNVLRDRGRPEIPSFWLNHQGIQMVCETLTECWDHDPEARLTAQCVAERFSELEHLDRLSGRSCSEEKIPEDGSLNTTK

C=CC(=O)Nc1cccc(Nc2nc(Nc3ccc(OCCOC)c(F)c3)ncc2F)c1 [Compound 2]
inhibition at 3 µM (TGFBR2): -0.19%
remaining activity at 3 µM (TGFBR2; [1]): 98.1%
remaining activity at 3 µM (TGFBR2; [2]): 102%
inhibition at 3 µM (NEK9): 15.9%
remaining activity at 3 µM (NEK9; [1]): 83.8%
remaining activity at 3 µM (NEK9; [2]): 84.3%
inhibition at 3 µM (ULK2): -5.74%
remaining activity at 3 µM (ULK2; [1]): 102%
remaining activity at 3 µM (ULK2; [2]): 109%
inhibition at 3 µM (MLCK2/MYLK2): 30.1%
remaining activity at 3 µM (MLCK2/MYLK2; [1]): 71.6%
remaining activity at 3 µM (MLCK2/MYLK2; [2]): 68.1%
inhibition at 3 µM (JNK1): 12.1%
remaining activity at 3 µM (JNK1; [1]): 88.1%
remaining activity at 3 µM (JNK1; [2]): 87.7%
inhibition at 3 µM (ZAK/MLTK): 15.7%
remaining activity at 3 µM (ZAK/MLTK; [1]): 83.7%
remaining activity at 3 µM (ZAK/MLTK; [2]): 85%
